Laboratory results taken from patent US20140328809A1, “METHODS OF INDUCING CHONDROGENESIS IN MESENCHYMAL STEM CELLS USING SYNTHETIC TRITERPENOIDS” (TRUSTEES OF DARTMOUTH COLLEGE, priority 2011, published 2014).

Legend:
[1] = test system: BMP-4; test: Quantitative RT-PCR analysis on calvaria: BMP-4; format: cell-based, mouse; conditions: 7 days of culture, normalized to control = 1.00
Protocol: (§1) All chemicals were from Sigma-Aldrich. Primers for RT-PCR were from Applied Biosystems. The isolation of calvaria was essentially performed as described previously (Garrett, 2003; Garret et al., 2003). The calvaria were cultured in Biggers, Gwatkins, Judah medium supplemented with 1 mg/mL of bovine serum albumin (Cohn fraction V), 100 U/mL each of penicillin/streptomycin, and 0.292 mg/mL of glutaimine. On Day 1, the calvaria were treated with CDDO-Im or CDDO-EA. On Day 4, the medium was replaced with fresh medium, again containing either CDDO-Im or CDDO-EA. On Day 7, the calvaria were collected and either stored at −80° C. for further RNA analysis or fixed in 10% buffered formalin for 24 h and transferred to 80% ethanol for histological analysis.
(§2) After 7 days of culture, RNA was isolated from the calvaria and quantitative RT-PCR analysis was performed for more than 15 different markers including: SOX9 (a transcription factor specific for cartilage), collagen type II (alpha 1), all three isoforms of TGF-β, BMPs 2 and 4, BMP receptor II, Smads 3, 4, 6, and 7, tissue inhibitors of metalloproteinases (TIMP-1 and TIMP-2), and matrix metalloproteinase-9 (MMP-9). […] Both triterpenoids are strong inhibitors of the expression of MMP-9; CDDO-EA (200 nM), caused almost 80% inhibition of the expression of this metalloproteinase, which is known to be involved in the degradation of cartilage (Shinoda et al., 2008).

[2] = test system: SOX-9; test: Quantitative RT-PCR analysis on calvaria: SOX-9; format: cell-based, mouse; conditions: 7 days of culture, normalized to control = 1.00
Protocol: as §1, §2

[3] = test system: TGF-β2; test: Quantitative RT-PCR analysis on calvaria: TGF-β2; format: cell-based, mouse; conditions: 7 days of culture, normalized to control = 1.00
Protocol: as §1, §2

[4] = test system: MMP-9; test: Quantitative RT-PCR analysis on calvaria: MMP-9; format: cell-based, mouse; conditions: for MMP-9 expression (quantitative RT-PCR): 7 days of culture, normalized to control = 1.00
Protocol: as §1, §2

[5] = test system: SOX9; test: Western blot of chondrocyte marker SOX9 in bone marrow-derived MSCs; format: cell-based, human; conditions: 100 nM for 7 days; MSCs in chondrogenic culture medium; not detectable in control
Protocol: (§3) Human bone marrow-derived stromal cells (ScienCell Research Laboratories), which contain a population of responsive mesenchymal stem cells, were grown in mesenchymal stem cell medium (ScienCell Research Laboratories). MSCs were serum-starved 24 hours prior to all experimental conditions. The synthesis of the synthetic triterpenoids, CDDO-Im and CDDO-EA, have been previously described (Sporn et al., 2011).
(§4) For directed chondrocytic differentiation, MSCs were grown in StemPro chondrogenic culture medium (Invitrogen) prepared by the technique of Kassem (2004), which is incorporated herein by reference. See also Medici et al. (2010), which is also incorporated herein by reference. CDDO-Im and CDDO-EA were added to the cultures at a concentration of 100 nM for 7 days. Western blot analysis was performed using the following antibodies at concentrations (and using protocols) recommended by the respective manufacturers: SOX9, COL2A1 (Santa Cruz Biotechnology), Aggrecan (Abcam), β-actin (Sigma-Aldrich). β-actin was used as a loading control. HRP-conjugated IgG TrueBlot reagents (eBioscience) were used at a dilution of 1:1000.

[6] = test system: Smad7; test: Quantitative RT-PCR analysis on calvaria: Smad7; format: cell-based, mouse; conditions: 7 days of culture, normalized to control = 1.00
Protocol: as §1, §2

[7] = test system: TGF-β1; test: Quantitative RT-PCR analysis on calvaria: TGF-β1; format: cell-based, mouse; conditions: 7 days of culture, normalized to control = 1.00
Protocol: as §1, §2

[8] = test system: Col II alpha1; test: Quantitative RT-PCR analysis on calvaria: Col II alpha1; format: cell-based, mouse; conditions: 7 days of culture, normalized to control = 1.00
Protocol: as §1, §2

[9] = test system: TIMP-2; test: Quantitative RT-PCR analysis on calvaria: TIMP-2; format: cell-based, mouse; conditions: 7 days of culture, normalized to control = 1.00
Protocol: as §1, §2

[10] = test system: Smad4; test: Quantitative RT-PCR analysis on calvaria: Smad4; format: cell-based, mouse; conditions: 7 days of culture, normalized to control = 1.00
Protocol: as §1, §2

[11] = test system: collagen type II (COL2A1); test: Immunohistochemical analysis of collagen type II in calvaria; format: cell-based, mouse; conditions: 200 nM, FIG. 1b
Protocol: as §1
(§5) After fixation for 24 h, the calvaria were decalcified in EDTA, embedded in paraffin, and cut into 4 μm sections. The sections were stained either with modified hematoxylin and eosin or with toluidine blue (1% in 70% ethanol for 20 min, followed by destaining in 70%, 90%, and 100% ethanol for 15 seconds), placed in xylene twice, and then mounted (Garret, 2003). Procedures for immunofluroescence were performed essentially as previously described (Medici et al., 2010). […]

[12] = test system: BMP-2; test: Quantitative RT-PCR analysis on calvaria: BMP-2; format: cell-based, mouse; conditions: 7 days of culture, normalized to control = 1.00
Protocol: as §1, §2

[13] = test system: BMPRII; test: Quantitative RT-PCR analysis on calvaria: BMPRII; format: cell-based, mouse; conditions: 7 days of culture, normalized to control = 1.00
Protocol: as §1, §2

[14] = test system: TGF-β3; test: Quantitative RT-PCR analysis on calvaria: TGF-β3; format: cell-based, mouse; conditions: 7 days of culture, normalized to control = 1.00
Protocol: as §1, §2

[15] = test system: COL2A1; test: Western blot of chondrocyte marker COL2A1 in bone marrow-derived MSCs; format: cell-based, human; conditions: 100 nM for 7 days; MSCs in chondrogenic culture medium; not detectable in control
Protocol: as §3, §4

[16] = test system: newborn mouse calvaria; test: Histological analysis (toluidine blue) of chondrogenesis in newborn mouse calvarial organ cultures; format: cell-based; conditions: 200 nM, 7 days, FIG. 1a, at least 3 sets of replicate experiments
Protocol: as §1, §5

[17] = test system: Smad6; test: Quantitative RT-PCR analysis on calvaria: Smad6; format: cell-based, mouse; conditions: 7 days of culture, normalized to control = 1.00
Protocol: as §1, §2

[18] = test system: TIMP-1; test: Quantitative RT-PCR analysis on calvaria: TIMP-1; format: cell-based, mouse; conditions: 7 days of culture, normalized to control = 1.00
Protocol: as §1, §2

[19] = test system: Smad3; test: Quantitative RT-PCR analysis on calvaria: Smad3; format: cell-based, mouse; conditions: 7 days of culture, normalized to control = 1.00
Protocol: as §1, §2

[20] = test system: Aggrecan; test: Western blot of chondrocyte marker Aggrecan in bone marrow-derived MSCs; format: cell-based, human; conditions: 100 nM for 7 days; MSCs in chondrogenic culture medium; not detectable in control
Protocol: as §3, §4

For `CCNC(=O)[C@]12CCC(C)(C)C[C@H]1[C@H]1C(=O)C=C3[C@@]4(C)C=C(C#N)C(=O)C(C)(C)[C@@H]4CC[C@@]3(C)[C@]1(C)CC2` [CDDO-EA, CDDO-Ethyl amide], the “BMP-4 expression (quantitative RT-PCR)” value ([1]; 50 nM) was 1.28 ± 0.12, the “BMP-4 expression (quantitative RT-PCR)” value ([1]; 200 nM) was 1.47 ± 0.13 and the “BMP-4 expression (quantitative RT-PCR)” value ([1]; 500 nM) was 2.49 ± 0.35. For the same compound, the “SOX-9 expression (quantitative RT-PCR)” value ([2]; 50 nM) was 1.64 ± 0.17, the “SOX-9 expression (quantitative RT-PCR)” value ([2]; 200 nM) was 2.62 ± 0.33 and the “SOX-9 expression (quantitative RT-PCR)” value ([2]; 500 nM) was 3.12 ± 0.38. The “TGF-β2 expression (quantitative RT-PCR)” value ([3]; 50 nM) was 1.36 ± 0.13, the “TGF-β2 expression (quantitative RT-PCR)” value ([3]; 200 nM) was 1.61 ± 0.11 and the “TGF-β2 expression (quantitative RT-PCR)” value ([3]; 500 nM) was 1.88 ± 0.09. For the same compound, the “MMP-9 expression (quantitative RT-PCR)” value ([4]; 50 nM) was 0.49 ± 0.09, the “MMP-9 expression (quantitative RT-PCR)” value ([4]; 200 nM) was 0.22 ± 0.03 and the “inhibition of the expression of MMP-9” value ([4]; 200 nM, RT-PCR) was roughly 80%. The “MMP-9 expression (quantitative RT-PCR)” value ([4]; 500 nM) was 0.19 ± 0.06, the “induction of SOX9 (Western blot)” value [5] was “clear induction” and the “Smad7 expression (quantitative RT-PCR)” value ([6]; 50 nM) was 1.28 ± 0.10. The “Smad7 expression (quantitative RT-PCR)” value ([6]; 200 nM) was 1.86 ± 0.19, the “Smad7 expression (quantitative RT-PCR)” value ([6]; 500 nM) was 3.06 ± 0.28 and the “TGF-β1 expression (quantitative RT-PCR)” value ([7]; 50 nM) was 1.17 ± 0.09. For the same compound, the “TGF-β1 expression (quantitative RT-PCR)” value ([7]; 200 nM) was 1.47 ± 0.24, the “TGF-β1 expression (quantitative RT-PCR)” value ([7]; 500 nM) was 1.74 ± 0.17 and the “Col II alpha1 expression (quantitative RT-PCR)” value (shortened to “Col II alpha1 expression”) ([8]; 50 nM) was 4.12 ± 1.78. For the same compound, the “Col II alpha1 expression” value ([8]; 200 nM) was 5.45 ± 1.13, the “Col II alpha1 expression” value ([8]; 500 nM) was 3.18 ± 0.71 and the “TIMP-2 expression (quantitative RT-PCR)” value ([9]; 50 nM) was 1.78 ± 0.18. For the same compound, the “TIMP-2 expression (quantitative RT-PCR)” value ([9]; 200 nM) was 2.44 ± 0.31, the “TIMP-2 expression (quantitative RT-PCR)” value ([9]; 500 nM) was 4.09 ± 0.36 and the “Smad4 expression (quantitative RT-PCR)” value ([10]; 50 nM) was 1.06 ± 0.03. The “Smad4 expression (quantitative RT-PCR)” value ([10]; 200 nM) was 1.37 ± 0.12, the “Smad4 expression (quantitative RT-PCR)” value ([10]; 500 nM) was 1.89 ± 0.12 and the “formation of collagen type II (COL2A1), red fluorescence” value [11] was “induce the formation of collagen type II”. The “BMP-2 expression (quantitative RT-PCR)” value ([12]; 50 nM) was 1.53 ± 0.20, the “BMP-2 expression (quantitative RT-PCR)” value ([12]; 200 nM) was 2.52 ± 0.29 and the “BMP-2 expression (quantitative RT-PCR)” value ([12]; 500 nM) was 5.66 ± 0.67. The “BMPRII expression (quantitative RT-PCR)” value ([13]; 50 nM) was 1.50 ± 0.14, the “BMPRII expression (quantitative RT-PCR)” value ([13]; 200 nM) was 1.71 ± 0.19 and the “BMPRII expression (quantitative RT-PCR)” value ([13]; 500 nM) was 2.24 ± 0.22. For the same compound, the “TGF-β3 expression (quantitative RT-PCR)” value ([14]; 50 nM) was 1.39 ± 0.07, the “TGF-β3 expression (quantitative RT-PCR)” value ([14]; 200 nM) was 1.56 ± 0.13 and the “TGF-β3 expression (quantitative RT-PCR)” value ([14]; 500 nM) was 1.44 ± 0.11. The “induction of COL2A1 (Western blot)” value [15] was “clear induction”, the “induction of chondrogenesis (metachromatic toluidine blue purple staining, proteoglycans)” value [16] was “marked ability to induce chondrogenesis” and the “Smad6 expression (quantitative RT-PCR)” value ([17]; 50 nM) was 1.09 ± 0.04. For the same compound, the “Smad6 expression (quantitative RT-PCR)” value ([17]; 200 nM) was 1.77 ± 0.24, the “Smad6 expression (quantitative RT-PCR)” value ([17]; 500 nM) was 2.85 ± 0.31 and the “TIMP-1 expression (quantitative RT-PCR)” value ([18]; 50 nM) was 1.88 ± 0.34. For the same compound, the “TIMP-1 expression (quantitative RT-PCR)” value ([18]; 200 nM) was 2.85 ± 0.38, the “TIMP-1 expression (quantitative RT-PCR)” value ([18]; 500 nM) was 4.65 ± 0.38 and the “Smad3 expression (quantitative RT-PCR)” value ([19]; 50 nM) was 1.14 ± 0.12. The “Smad3 expression (quantitative RT-PCR)” value ([19]; 200 nM) was 1.35 ± 0.07, the “Smad3 expression (quantitative RT-PCR)” value ([19]; 500 nM) was 1.93 ± 0.16 and the “induction of Aggrecan (Western blot)” value [20] was “clear induction”.
